How the values were obtained:
Assay in all cases: KINOMEscan
Type in all cases: binding
Conditions in all cases: 1.0 µM
[1] = target: T1, TYRO3 (Homo sapiens, UniProt Q06418)
T1 construct: DNA tag (qPCR barcode); purchased Eurofins/DiscoverX KINOMEscan scanMAX
Protocol: (§1) Kinase retention to the immobilized ligand is then measured using quantitative real-time PCR for each kinase-specific DNA barcode.

[2] = target: T2, ZAK (Homo sapiens, UniProt Q9NYL2)
T2 construct: purchased Eurofins/DiscoverX (KINOMEscan scanMAX service)
Protocol: as §1

[3] = target: T3, MST4 (Homo sapiens, UniProt Q9P289)
T3 construct: purchased Eurofins/DiscoverX KINOMEscan scanMAX
Protocol: as §1

[4] = target: T4, ASK2 (Homo sapiens, UniProt O95382)
T4 construct: purchased Eurofins/DiscoverX KINOMEscan scanMAX
Protocol: as §1

[5] = target: T5, MAP4K4 (Homo sapiens, UniProt O95819)
T5 construct: purchased Eurofins/DiscoverX KINOMEscan scanMAX
Protocol: as §1

[6] = target: T6, KIT(V559D,T670I) (Homo sapiens, UniProt P10721, T670I/V559D)
T6 construct: purchased Eurofins/DiscoverX KINOMEscan scanMAX
Protocol: as §1

[7] = target: T7, KIT-autoinhibited (Homo sapiens, UniProt P10721)
T7 construct: purchased Eurofins/DiscoverX KINOMEscan scanMAX
Protocol: as §1

[8] = target: T8, SIK2 (Homo sapiens, UniProt Q9H0K1)
T8 construct: purchased Eurofins/DiscoverX KINOMEscan scanMAX
Protocol: as §1

[9] = target: T9, NEK1 (Homo sapiens, UniProt Q96PY6)
T9 construct: purchased Eurofins/DiscoverX KINOMEscan scanMAX
Protocol: as §1

[10] = target: T10, FLT1 (Homo sapiens, UniProt P17948)
T10 construct: purchased Eurofins/DiscoverX KINOMEscan scanMAX
Protocol: as §1

[11] = target: T11, EPHA2 (Homo sapiens, UniProt P29317)
T11 construct: purchased Eurofins/DiscoverX KINOMEscan scanMAX
Protocol: as §1

[12] = target: T12, CDK3 (Homo sapiens, UniProt Q00526)
T12 construct: purchased Eurofins/DiscoverX KINOMEscan scanMAX
Protocol: as §1

[13] = target: T13, LTK (Homo sapiens, UniProt P29376)
T13 construct: purchased Eurofins/DiscoverX KINOMEscan scanMAX
Protocol: as §1

[14] = target: T14, ULK2 (Homo sapiens, UniProt Q8IYT8)
T14 construct: DNA tag (qPCR barcode); purchased Eurofins/DiscoverX KINOMEscan scanMAX
Protocol: as §1

[15] = target: T15, ABL2 (Homo sapiens, UniProt P42684)
T15 construct: purchased Eurofins/DiscoverX KINOMEscan scanMAX
Protocol: as §1

[16] = target: T16, MST3 (Homo sapiens, UniProt Q9Y6E0)
T16 construct: purchased Eurofins/DiscoverX KINOMEscan scanMAX
Protocol: as §1

[17] = target: T17, MARK4 (Homo sapiens, UniProt Q96L34)
T17 construct: purchased Eurofins/DiscoverX KINOMEscan scanMAX
Protocol: as §1

[18] = target: T18, LOK (Homo sapiens, UniProt O94804)
T18 construct: purchased Eurofins/DiscoverX KINOMEscan scanMAX
Protocol: as §1

[19] = target: T19, PDPK1 (Homo sapiens, UniProt O15530)
T19 construct: purchased Eurofins/DiscoverX KINOMEscan scanMAX
Protocol: as §1

[20] = target: T20, BMPR1B (Homo sapiens, UniProt O00238)
T20 construct: purchased Eurofins/DiscoverX KINOMEscan scanMAX
Protocol: as §1

[21] = target: T21, CDKL5 (Homo sapiens, UniProt O76039)
T21 construct: purchased Eurofins/DiscoverX KINOMEscan scanMAX
Protocol: as §1

[22] = target: T22, LIMK2 (Homo sapiens, UniProt P53671)
T22 construct: purchased Eurofins/DiscoverX KINOMEscan scanMAX
Protocol: as §1

[23] = target: T23, STK33 (Homo sapiens, UniProt Q9BYT3)
T23 construct: purchased Eurofins/DiscoverX KINOMEscan scanMAX
Protocol: as §1

[24] = target: T24, PIK3CA(C420R) (Homo sapiens, UniProt P42336, C420R)
T24 construct: purchased Eurofins/DiscoverX KINOMEscan scanMAX
Protocol: as §1

[25] = target: T25, PDGFRA (Homo sapiens, UniProt P16234)
T25 construct: purchased Eurofins/DiscoverX KINOMEscan scanMAX
Protocol: as §1

[26] = target: T26, ABL1-nonphosphorylated (Homo sapiens, UniProt P00519)
T26 construct: purchased Eurofins/DiscoverX KINOMEscan scanMAX
Protocol: as §1

[27] = target: T27, PHKG1 (Homo sapiens, UniProt Q16816)
T27 construct: purchased Eurofins/DiscoverX KINOMEscan scanMAX
Protocol: as §1

[28] = target: T28, CLK3 (Homo sapiens, UniProt P49761)
T28 construct: purchased Eurofins/DiscoverX KINOMEscan scanMAX
Protocol: as §1

[29] = target: T29, KIT(A829P) (Homo sapiens, UniProt P10721, A829P)
T29 construct: purchased Eurofins/DiscoverX KINOMEscan scanMAX
Protocol: as §1

[30] = target: T30, DDR2 (Homo sapiens, UniProt Q16832)
T30 construct: purchased Eurofins/DiscoverX KINOMEscan scanMAX
Protocol: as §1

[31] = target: T31, ERK2 (Homo sapiens, UniProt P28482)
T31 construct: purchased Eurofins/DiscoverX KINOMEscan scanMAX
Protocol: as §1

[32] = target: T32, PIK3CA(E545K) (Homo sapiens, UniProt P42336, E545K)
T32 construct: purchased Eurofins/DiscoverX KINOMEscan scanMAX
Protocol: as §1

[33] = target: T33, ERK8 (Homo sapiens, UniProt Q8TD08)
T33 construct: purchased Eurofins/DiscoverX KINOMEscan scanMAX
Protocol: as §1

[34] = target: T34, DDR1 (Homo sapiens, UniProt Q08345)
T34 construct: purchased Eurofins/DiscoverX KINOMEscan scanMAX
Protocol: as §1

[35] = target: T35, CDC2L1 (Homo sapiens, UniProt P21127)
T35 construct: purchased Eurofins/DiscoverX KINOMEscan scanMAX
Protocol: as §1

[36] = target: T36, ALK (Homo sapiens, UniProt Q9UM73)
T36 construct: purchased Eurofins/DiscoverX KINOMEscan scanMAX
Protocol: as §1

[37] = target: T37, CDK7 (Homo sapiens, UniProt P50613)
T37 construct: purchased Eurofins/DiscoverX KINOMEscan scanMAX
Protocol: as §1

[38] = target: T38, CLK4 (Homo sapiens, UniProt Q9HAZ1)
T38 construct: purchased Eurofins/DiscoverX KINOMEscan scanMAX
Protocol: as §1

[39] = target: T39, YANK2 (Homo sapiens, UniProt Q9NY57)
T39 construct: purchased Eurofins/DiscoverX (KINOMEscan scanMAX service)
Protocol: as §1

[40] = target: T40, CSNK1G1 (Homo sapiens, UniProt Q9HCP0)
T40 construct: purchased Eurofins/DiscoverX KINOMEscan scanMAX
Protocol: as §1

[41] = target: T41, p38-gamma (Homo sapiens, UniProt P53778)
T41 construct: purchased Eurofins/DiscoverX KINOMEscan scanMAX
Protocol: as §1

[42] = target: T42, PAK4 (Homo sapiens, UniProt O96013)
T42 construct: purchased Eurofins/DiscoverX KINOMEscan scanMAX
Protocol: as §1

T8 sequence (Q9H0K1 whole entry): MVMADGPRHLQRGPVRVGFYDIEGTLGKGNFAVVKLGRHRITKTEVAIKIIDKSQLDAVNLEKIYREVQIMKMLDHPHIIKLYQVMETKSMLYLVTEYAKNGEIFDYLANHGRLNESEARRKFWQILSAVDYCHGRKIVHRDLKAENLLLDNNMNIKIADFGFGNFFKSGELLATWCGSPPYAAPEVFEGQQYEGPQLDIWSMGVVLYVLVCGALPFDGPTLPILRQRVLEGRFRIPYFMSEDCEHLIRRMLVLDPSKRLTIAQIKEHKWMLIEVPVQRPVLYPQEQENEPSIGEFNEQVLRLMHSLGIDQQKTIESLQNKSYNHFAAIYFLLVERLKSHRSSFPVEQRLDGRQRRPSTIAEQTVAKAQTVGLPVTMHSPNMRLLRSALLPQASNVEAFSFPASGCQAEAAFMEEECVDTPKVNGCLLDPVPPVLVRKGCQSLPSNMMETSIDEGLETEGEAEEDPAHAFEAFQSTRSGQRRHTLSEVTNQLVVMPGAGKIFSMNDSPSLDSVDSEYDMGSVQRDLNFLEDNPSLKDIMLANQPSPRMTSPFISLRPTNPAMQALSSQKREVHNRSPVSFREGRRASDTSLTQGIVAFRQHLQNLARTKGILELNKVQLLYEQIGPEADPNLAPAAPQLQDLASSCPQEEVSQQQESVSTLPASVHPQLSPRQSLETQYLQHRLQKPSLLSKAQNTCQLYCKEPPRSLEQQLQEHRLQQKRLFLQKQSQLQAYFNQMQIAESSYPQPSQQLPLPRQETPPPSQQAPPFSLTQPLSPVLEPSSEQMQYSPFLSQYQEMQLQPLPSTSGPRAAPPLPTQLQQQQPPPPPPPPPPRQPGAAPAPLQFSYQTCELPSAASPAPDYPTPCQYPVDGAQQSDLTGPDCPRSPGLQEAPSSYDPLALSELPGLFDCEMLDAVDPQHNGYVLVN
T38 sequence (Q9HAZ1 whole entry): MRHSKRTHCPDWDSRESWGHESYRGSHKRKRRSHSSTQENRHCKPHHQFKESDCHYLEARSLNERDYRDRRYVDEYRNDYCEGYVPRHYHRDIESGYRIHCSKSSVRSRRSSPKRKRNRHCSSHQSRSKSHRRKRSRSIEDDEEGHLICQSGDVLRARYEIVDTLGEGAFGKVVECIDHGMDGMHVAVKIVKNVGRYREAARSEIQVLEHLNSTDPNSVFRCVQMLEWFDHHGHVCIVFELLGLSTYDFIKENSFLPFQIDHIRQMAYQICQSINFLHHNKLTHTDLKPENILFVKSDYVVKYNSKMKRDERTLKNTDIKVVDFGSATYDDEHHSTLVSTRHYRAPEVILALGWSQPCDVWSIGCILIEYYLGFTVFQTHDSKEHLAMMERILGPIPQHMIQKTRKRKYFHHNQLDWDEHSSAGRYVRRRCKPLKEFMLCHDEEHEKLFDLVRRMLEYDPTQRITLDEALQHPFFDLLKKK
T28 sequence (P49761 whole entry): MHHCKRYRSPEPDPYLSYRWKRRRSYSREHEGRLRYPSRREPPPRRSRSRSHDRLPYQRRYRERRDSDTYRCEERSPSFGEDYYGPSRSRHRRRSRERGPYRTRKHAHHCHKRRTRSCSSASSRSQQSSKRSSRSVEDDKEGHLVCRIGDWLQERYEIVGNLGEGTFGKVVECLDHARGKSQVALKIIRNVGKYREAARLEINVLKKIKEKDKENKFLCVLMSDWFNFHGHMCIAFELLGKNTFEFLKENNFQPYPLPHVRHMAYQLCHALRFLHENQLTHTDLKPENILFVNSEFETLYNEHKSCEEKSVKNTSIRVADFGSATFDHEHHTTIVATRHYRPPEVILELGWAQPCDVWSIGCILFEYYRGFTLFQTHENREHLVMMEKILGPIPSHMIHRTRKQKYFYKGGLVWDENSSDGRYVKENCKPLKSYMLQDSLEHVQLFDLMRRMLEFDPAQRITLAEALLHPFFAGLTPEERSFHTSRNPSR
T7 sequence (P10721 26-976): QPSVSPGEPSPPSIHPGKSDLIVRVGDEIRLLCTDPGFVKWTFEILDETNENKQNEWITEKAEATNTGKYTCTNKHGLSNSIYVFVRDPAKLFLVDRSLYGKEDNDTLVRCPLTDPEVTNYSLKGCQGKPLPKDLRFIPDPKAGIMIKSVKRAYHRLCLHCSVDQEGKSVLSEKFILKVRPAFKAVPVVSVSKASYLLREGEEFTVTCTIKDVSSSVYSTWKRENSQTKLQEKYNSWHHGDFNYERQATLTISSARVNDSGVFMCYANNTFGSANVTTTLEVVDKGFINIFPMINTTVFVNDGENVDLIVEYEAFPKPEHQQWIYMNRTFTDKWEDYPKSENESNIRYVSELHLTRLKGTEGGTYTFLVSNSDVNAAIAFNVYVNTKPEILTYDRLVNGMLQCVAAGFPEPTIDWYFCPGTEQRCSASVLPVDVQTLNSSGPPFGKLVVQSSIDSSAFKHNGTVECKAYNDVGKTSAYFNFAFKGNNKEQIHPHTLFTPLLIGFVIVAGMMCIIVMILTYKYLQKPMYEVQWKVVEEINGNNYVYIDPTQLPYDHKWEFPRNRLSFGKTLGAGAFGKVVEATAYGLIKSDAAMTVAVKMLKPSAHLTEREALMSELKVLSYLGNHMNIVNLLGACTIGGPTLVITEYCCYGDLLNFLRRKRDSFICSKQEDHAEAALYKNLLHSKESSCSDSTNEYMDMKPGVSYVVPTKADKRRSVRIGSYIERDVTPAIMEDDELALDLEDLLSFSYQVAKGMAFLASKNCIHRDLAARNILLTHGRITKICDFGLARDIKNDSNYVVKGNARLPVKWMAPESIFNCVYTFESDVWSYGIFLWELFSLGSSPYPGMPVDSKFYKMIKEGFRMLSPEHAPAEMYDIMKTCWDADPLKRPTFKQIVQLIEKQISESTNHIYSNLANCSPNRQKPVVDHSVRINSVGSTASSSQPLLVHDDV
T16 sequence (Q9Y6E0 whole entry): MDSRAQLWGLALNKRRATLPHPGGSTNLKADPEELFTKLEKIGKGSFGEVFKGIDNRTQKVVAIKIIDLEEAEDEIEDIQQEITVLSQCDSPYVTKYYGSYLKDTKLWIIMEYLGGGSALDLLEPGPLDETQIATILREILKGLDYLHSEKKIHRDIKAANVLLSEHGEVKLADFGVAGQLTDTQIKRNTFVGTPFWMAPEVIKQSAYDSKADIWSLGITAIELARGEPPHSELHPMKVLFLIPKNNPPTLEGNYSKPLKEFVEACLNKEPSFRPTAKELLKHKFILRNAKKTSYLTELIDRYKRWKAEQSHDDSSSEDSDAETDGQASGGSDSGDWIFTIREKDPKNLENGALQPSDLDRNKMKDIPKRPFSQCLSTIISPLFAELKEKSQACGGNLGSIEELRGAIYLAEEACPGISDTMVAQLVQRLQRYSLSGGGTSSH
T5 sequence (O95819 whole entry): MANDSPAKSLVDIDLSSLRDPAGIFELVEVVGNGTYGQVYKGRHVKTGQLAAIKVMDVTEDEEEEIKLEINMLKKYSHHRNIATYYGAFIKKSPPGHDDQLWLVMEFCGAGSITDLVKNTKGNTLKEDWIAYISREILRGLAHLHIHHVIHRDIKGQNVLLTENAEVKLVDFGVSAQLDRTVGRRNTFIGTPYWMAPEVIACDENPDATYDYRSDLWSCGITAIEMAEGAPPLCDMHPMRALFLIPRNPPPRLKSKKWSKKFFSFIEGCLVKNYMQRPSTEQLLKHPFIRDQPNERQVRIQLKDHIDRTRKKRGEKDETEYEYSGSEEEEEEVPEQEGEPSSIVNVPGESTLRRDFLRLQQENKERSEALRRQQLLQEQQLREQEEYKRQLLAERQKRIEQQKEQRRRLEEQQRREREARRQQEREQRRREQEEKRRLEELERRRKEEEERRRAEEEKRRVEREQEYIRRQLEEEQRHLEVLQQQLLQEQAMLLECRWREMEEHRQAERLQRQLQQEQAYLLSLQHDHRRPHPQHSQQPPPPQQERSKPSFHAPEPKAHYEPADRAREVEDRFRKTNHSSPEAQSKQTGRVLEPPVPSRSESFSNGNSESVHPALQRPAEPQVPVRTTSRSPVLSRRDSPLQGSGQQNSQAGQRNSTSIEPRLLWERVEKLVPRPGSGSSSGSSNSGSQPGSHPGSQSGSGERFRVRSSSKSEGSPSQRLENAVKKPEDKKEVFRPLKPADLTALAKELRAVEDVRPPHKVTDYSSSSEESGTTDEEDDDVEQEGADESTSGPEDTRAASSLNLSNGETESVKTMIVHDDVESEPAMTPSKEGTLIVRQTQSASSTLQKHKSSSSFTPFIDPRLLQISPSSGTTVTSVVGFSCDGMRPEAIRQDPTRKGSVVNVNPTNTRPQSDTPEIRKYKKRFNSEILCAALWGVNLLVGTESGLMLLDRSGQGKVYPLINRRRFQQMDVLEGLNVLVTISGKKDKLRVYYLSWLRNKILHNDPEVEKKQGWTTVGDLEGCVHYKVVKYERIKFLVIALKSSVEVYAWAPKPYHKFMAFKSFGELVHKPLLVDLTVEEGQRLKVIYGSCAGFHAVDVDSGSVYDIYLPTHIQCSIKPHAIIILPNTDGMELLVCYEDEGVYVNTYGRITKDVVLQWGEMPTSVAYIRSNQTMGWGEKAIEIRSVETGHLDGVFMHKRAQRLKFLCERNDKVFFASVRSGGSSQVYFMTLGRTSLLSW
T6 sequence (P10721 26-976 V559D/T670I): as the sequence (P10721 26-976) above, with V534D, T645I counted along it
T37 sequence (P50613 whole entry): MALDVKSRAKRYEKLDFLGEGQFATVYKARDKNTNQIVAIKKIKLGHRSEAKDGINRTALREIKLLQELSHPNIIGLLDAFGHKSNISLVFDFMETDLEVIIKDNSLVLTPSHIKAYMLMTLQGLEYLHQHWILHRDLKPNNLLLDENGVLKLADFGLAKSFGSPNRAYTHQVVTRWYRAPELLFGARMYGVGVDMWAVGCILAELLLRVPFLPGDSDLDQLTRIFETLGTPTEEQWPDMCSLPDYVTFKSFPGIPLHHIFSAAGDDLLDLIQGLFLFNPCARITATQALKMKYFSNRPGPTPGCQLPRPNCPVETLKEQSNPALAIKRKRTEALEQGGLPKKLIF
T29 sequence (P10721 26-976 A829P): as the sequence (P10721 26-976) above, with A804P counted along it

Question: What does the source list for `CN1CCN(C2CCC(n3cc(-c4ccc(Oc5ccccc5)cc4)c4c(N)ncnc43)CC2)CC1` (stereo not drawn) [A-419259]?
Answer: % Control [1]: 66%; % Control [2]: 13%; % Control [3]: 4.9%; % Control [4]: 62%; % Control [5]: 83%; % Control [6]: 40%; % Control [7]: 6.9%; % Control [8]: 19%; % Control [9]: 100%; % Control [10]: 29%; % Control [11]: 100%; % Control [12]: 99%; % Control [13]: 36%; % Control [14]: 47%; % Control [15]: 4.9%; % Control [16]: 80%; % Control [17]: 97%; % Control [18]: 20%; % Control [19]: 100%; % Control [20]: 92%; % Control [21]: 100%; % Control [22]: 91%; % Control [23]: 30%; % Control [24]: 100%; % Control [25]: 1.1%; % Control [26]: 0.1%; % Control [27]: 99%; % Control [28]: 100%; % Control [29]: 5.9%; % Control [30]: 59%; % Control [31]: 77%; % Control [32]: 95%; % Control [33]: 100%; % Control [34]: 65%; % Control [35]: 61%; % Control [36]: 29%; % Control [37]: 28%; % Control [38]: 100%; % Control [39]: 30%; % Control [40]: 80%; % Control [41]: 100%; % Control [42]: 93%
